What was measured:
[1] = target: T1, hMATE2K (Homo sapiens, UniProt Q86VL8); assay: Substrate assessment: iohexol uptake in 293 cells expressing hMATE2K vs control; type: in vitro ADME; conditions: 10 μM iohexol, median (95% CI)
T1 construct: expressed in transfected cells; host or cells: HEK-293 (293) cells, pEBTetD plasmid, doxycycline-induced
Excerpt: (§1) We characterized the inhibitory potential of iohexol on major drug transporters recommended by regulatory agencies, which were previously assessed in a clinical transporter phenotyping cocktail study. These transporters include hOAT1, hOAT3, hOCT1, hOCT2, hMATE1, hMATE2K, human organic anion transporter polypeptides (hOATP)1B1, hOATP1B3, and human multidrug resistance protein (hMDR)1. Additionally, we investigated whether iohexol is a substrate for any of the renal transporters among these, including hOAT1/3, hOCT1/2, and hMATE1/2K. Cell‐based uptake assays were used to assess the activities of hOAT1/3, hOCT1/2, hMATE1/2K, and hOATP1B1/1B3. Inside‐out membrane vesicle uptake assays were used to evaluate the activity of hMDR1.
For substrate assessments, iohexol was incubated with stably transfected HEK‐293 cells expressing one of the following transporters: hOAT1, hOAT3, hOCT1, hOCT2, hMATE1, or hMATE2K, as well as with control cells lacking transporter expression. Stably transfected cell lines containing pEBTetD plasmids with wild‐type human transporter cDNAs were generated as previously described. Transporter expression was induced by adding 1 μg/mL doxycycline to the growth medium for at least 20 h. Iohexol would be considered a substrate for these transporters if: (1) the ratio of iohexol uptake in cells expressing the transporter to that in control cells was ≥ 2, and (2) a known inhibitor of the transporter reduced iohexol uptake to ≤ 50% at concentrations ≥ 10 times its inhibition constant or half‐maximal inhibitory concentration.
Uptake assays were performed using stably transfected 293 cells, with or without the expression of one of the following transporters: hOAT1, hOAT3, hOCT1, hOCT2, hMATE1, or hMATE2K, as previously described.^1
For the substrate assessment, cells were incubated with 10 µM iohexol for 10 minutes and 30 minutes for each transporter. Inhibition assays were performed using specific standard substrates for each transporter: 10 µM para-aminohippuric acid (PAH) for hOAT1, 3 µM estrone-3-sulfate (E3S) for hOAT3, 50 µM metformin for hOCT1, 5 µM metformin for hOCT2, and 3 µM 1-methyl-4-phenylpyridinium (MPP+) for hMATE1 and hMATE2K. […]
R version 4.2.1 (R Foundation for Statistical Computing, Vienna, Austria) was used for statistical evaluations and data visualization. The data analysis approach for the in vitro study was detailed by Hsin CH et al..^1 In brief, for transport assays, the initial uptake rate was calculated by normalizing the substrate concentration to both the protein concentration and the incubation time for each dish or well. The transporter-mediated uptake rate (net uptake) was determined by performing an element-wise subtraction of uptake rates from different conditions. […]

[2] = system: hOAT1, hOAT3, hOCT1, hOCT2, hMATE1, or hMATE2K; assay: Substrate assessments, summary across transporters; type: in vitro ADME, human
Excerpt: as §1, with “Inside‐out membrane vesicle uptake assays were used to evaluate the activity of hMDR1.” left out
R version 4.2.1 (R Foundation for Statistical Computing, Vienna, Austria) was used for statistical evaluations and data visualization. The data analysis approach for the in vitro study was detailed by Hsin CH et al..^1 In brief, for transport assays, the initial uptake rate was calculated by normalizing the substrate concentration to both the protein concentration and the incubation time for each dish or well. The transporter-mediated uptake rate (net uptake) was determined by performing an element-wise subtraction of uptake rates from different conditions. […] Net uptake rates were determined by subtracting the uptake rate of the control cells or vesicles from that of the transporter-expressing cells or vesicles for each pair. […]

T1 sequence (Q86VL8 1-566 isoform Q86VL8-3): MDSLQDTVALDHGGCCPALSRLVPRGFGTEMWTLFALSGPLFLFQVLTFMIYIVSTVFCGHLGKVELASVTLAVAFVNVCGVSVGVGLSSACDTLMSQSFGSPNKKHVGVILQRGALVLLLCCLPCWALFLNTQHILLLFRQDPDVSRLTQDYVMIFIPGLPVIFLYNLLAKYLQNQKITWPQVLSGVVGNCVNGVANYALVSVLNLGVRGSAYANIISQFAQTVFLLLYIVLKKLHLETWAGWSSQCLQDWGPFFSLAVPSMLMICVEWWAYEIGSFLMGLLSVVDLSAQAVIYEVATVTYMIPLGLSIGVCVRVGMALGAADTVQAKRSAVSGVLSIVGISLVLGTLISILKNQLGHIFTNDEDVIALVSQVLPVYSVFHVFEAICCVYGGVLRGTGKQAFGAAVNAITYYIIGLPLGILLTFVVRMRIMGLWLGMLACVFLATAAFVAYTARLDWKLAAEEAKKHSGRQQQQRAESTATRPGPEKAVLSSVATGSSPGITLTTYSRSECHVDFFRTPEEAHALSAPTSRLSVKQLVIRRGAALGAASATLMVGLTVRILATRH

Question: With `CC(=O)N(CC(O)CO)c1c(I)c(C(=O)NCC(O)CO)c(I)c(C(=O)NCC(O)CO)c1I` (stereo not drawn) [iohexol] as the compound, how does the “Differences in intracellular accumulation (expression on minus off)” value ([1]; 10 minutes) read?
Answer: The value was -0.36 (-1.1 to 0.24) pmol/mg protein.

Question: What about the “Uptake ratio (transporter-expressing vs non-expressing cells)” value ([1]; 10 minutes) of the same compound?
Answer: Its value is 0.95 (0.81 to 1.1).

Question: What about the “Differences in intracellular accumulation (expression on minus off)” value ([1]; 30 minutes) of the same compound?
Answer: Its value is 0.62 (-0.38 to 1.5) pmol/mg protein.

Question: What about the “Uptake ratio (transporter-expressing vs non-expressing cells)” value ([1]; 30 minutes) of the same compound?
Answer: The value was 1.1 (0.93 to 1.4).

Question: And the “Increase in iohexol accumulation vs control cells, range of median values across transporters” value ([2]; 10 μM iohexol for 10 and 30 min)?
Answer: The value was −0.67 to 1.5 pmol/mg protein.

Question: What about the “Substrate of the transporters (conclusion)” value ([2]; in vitro) of the same compound?
Answer: Its value is “neither a substrate nor a significant inhibitor”.
